Molecules are shown by their SMILES. pIC50: −log10 of the molar value.

Test [1] concerns the target T1, CETP (Homo sapiens, UniProt P11597).
T1 sequence (P11597 18-493): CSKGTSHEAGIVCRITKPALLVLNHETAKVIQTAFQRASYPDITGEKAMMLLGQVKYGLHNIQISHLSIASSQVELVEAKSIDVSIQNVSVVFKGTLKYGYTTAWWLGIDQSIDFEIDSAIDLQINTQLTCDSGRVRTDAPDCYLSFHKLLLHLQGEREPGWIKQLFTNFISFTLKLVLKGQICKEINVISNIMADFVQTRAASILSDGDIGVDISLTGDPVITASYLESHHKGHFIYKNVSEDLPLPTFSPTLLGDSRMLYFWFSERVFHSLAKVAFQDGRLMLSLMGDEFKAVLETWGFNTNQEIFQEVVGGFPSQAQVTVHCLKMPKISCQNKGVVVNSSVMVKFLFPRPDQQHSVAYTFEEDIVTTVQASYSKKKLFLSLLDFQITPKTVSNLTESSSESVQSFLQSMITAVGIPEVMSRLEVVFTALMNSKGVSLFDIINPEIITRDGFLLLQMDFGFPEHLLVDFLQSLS
Description: Assay of CETP inhibition in human plasma: transfer of [3H]CE from [3H]CE-HDL to VLDL and LDL. To be noted: inhibition of transfer of [3H]CE from [3H]CE-HDL to VLDL and LDL. It counts as biochemical. Also on record: Blood was obtained from healthy volunteers; from tissue; host or cells: pooled human EDTA plasma from healthy volunteers. Here is the method:
ASSAY OF CETP INHIBITION IN HUMAN PLASMA
Blood was obtained from healthy volunteers, recruited from the personnel of Monsanto Company, Saint Louis, MO. Blood was collected in tubes containing EDTA (EDTA plasma pool). The EDTA human plasma pool, previously stored at -20 °C, was thawed at room temperature and centrifuged for 5 minutes to remove any particulate matter. […] Equal volumes (396 µL) of the plasma containing the [^3H]CE-HDL were added by pipette into micro tubes (Titertube®, Bio-Rad laboratories, Hercules, CA). Inhibitor compounds, dissolved as 20-50 mM stock solutions in DMSO, were serially diluted in DMSO (or an alternative solvent in some cases, such as dimethylformamide or ethanol). Four µL of each of the serial dilutions of inhibitor compounds or DMSO alone were then added to each of the tubes containing plasma (396 µL). After mixing, triplicate aliquots (100 µL) from each plasma tube were then transferred to wells of 96-well roundbottomed polystyrene microtiter plates (Corning, Corning, NY). Plates were sealed with plastic film and incubated at 37 °C for 4 hours. "Test" samples contained plasma with dilutions of inhibitor compounds. "Control" samples contained plasma with DMSO diluted to the same concentration as the test samples, but without inhibitor. "Blank" samples were prepared as "control" samples, but were left in the micro tubes at 4 °C for the 4 hour incubation and were then added to the microtiter wells at the end of the incubation period. VLDL and LDL were precipitated by the addition of 10 µL of precipitating reagent (1% (w/v) dextran sulfate (Dextralip50)/0.5 M magnesium chloride, pH 7.4) to all wells. The wells were mixed on a plate mixer and then incubated at ambient temperature for 10 min. The plates were then centrifuged at 1000 x g for 30 min at 10 °C. The supernatants (50 µL) from each well were then transferred to Picoplate™ 96 plate wells (Packard, Meriden. CT) containing Microscint™-40 (Packard, Meriden, CT). The plates were heat-sealed (TopSeal™-P, Packard, Meriden, CT) according to the manufacturer's directions and mixed for 30 min. Radioactivity was measured on a microplate scintillation counter (TopCount. Packard, Meriden, CT). The maximum percentage transfer in the control wells (% transfer) was determined using the following equation: % Transfer = ([dpmblank -dpmcontrol ] × 100)/(dpmblank) [formula]
The percentage of transfer relative to the control (% control) was determined in the wells containing inhibitor compounds was determined as follows: % Control = ([dpmblank -dpmtest ] × 100)/(dpmblank -dpmcontrol) [formula]
IC50 values were then calculated from plots of % control versus concentration of inhibitor compound. […]

Test [2] has as its target T1, CETP. In words: Assay of CETP inhibition using purified components (reconstituted buffer assay): transfer of [3H]CE from HDL to LDL. It counts as biochemical. The arrangement: made in house; host or cells: CHO cells (serum-free conditioned medium). To be noted: 2 hours at 37°C. Here is the method: ASSAY OF CETP INHIBITION USING PURIFIED COMPONENTS (RECONSTITUTED BUFFER ASSAY)
The ability of compounds to inhibit CETP activity was assessed using an in vitro assay that measured the rate of transfer of radiolabeled cholesteryl ester ([^3H]CE) from HDL donor particles to LDL acceptor particles. Details of the assay are provided by Glenn, K. C. et al. (Glenn and Melton, "Quantification of Cholesteryl Ester Transfer Protein (CETP): A) CETP Activity and B) Immunochemical Assay of CETP Protein," Meth. Enzymol., 263, 339-351 (1996)). Human recombinant CETP can be obtained from the serum-free conditioned medium of CHO cells transfected with a cDNA for CETP and purified as described by Wang, S. et al. (J. Biol. Chem. 267, 17487-17490 (1992)). To measure CETP activity, [^3H]CE-labeled-HDL, LDL, CETP and assay buffer (50 mM tris(hydroxymethyl)aminomethane, pH 7.4; 150 mM sodium chloride; 2 mM ethylenediamine-tetraacetic acid (EDTA); 1% bovine serum albumin) were incubated in a final volume of 200 µL, for 2 hours at 37°C in 96 well plates. […] The inhibitors were then diluted 1:1 with CETP in assay buffer, and then 25 µL of that solution was mixed with 175 µL of lipoprotein pool for assay. Following incubation, LDL was differentially precipitated by the addition of 50 µL of 1% (w/v) dextran sulfate/0.5 M magnesium chloride, mixed by vortex, and incubated at room temperature for 10 minutes. A potion of the solution (200 µL) was transferred to a filter plate (Millipore). After filtration, the radioactivity present in the precipitated LDL was measured by liquid scintillation counting.
This value was defined as the IC50.

In test [1], `OC(CN(Cc1ccc(Cl)s1)c1cccc(OC(F)(F)F)c1)C(F)(F)F` (centres unmarked) [Example 321, 3-[[(5-chloro-2-thienyl)methyl][(3-trifluoromethoxy)phenyl]amino]-1,1,1-trifluoro-2-propanol] had a pIC50 below 4.00.

`OC(CN(Cc1ccc(OC(F)(F)F)cc1)c1ccccc1)C(F)(F)F` (centres unmarked) [compound 59]: the pIC50 in test [1] was 4.00.

On to `OC(CN(Cc1ccc(OC(F)(F)F)cc1)c1cccc(OC(F)(F)F)c1)C(F)(F)F` (centres unmarked) [compound 60], for which the pIC50 was 5.26 in test [2] and 3.92 in test [1].

`OC(CN(Cc1cccc(OC(F)(F)F)c1)c1ccccc1)C(F)(F)F` (centres unmarked) [compound 73]: in test [1], the pIC50 is 4.00.

In the case of `CC(C)c1ccc(Oc2cccc(N(Cc3cccc(OC(F)(F)C(F)F)c3)CC(O)C(F)(F)F)c2)cc1` (centres unmarked) [compound 250], the pIC50 is 6.36 in test [2] and 4.51 in test [1].

In test [1], `OC(CN(Cc1cccc(OC(F)(F)C(F)F)c1)c1cccc(Oc2ccc(Cl)c(Cl)c2)c1)C(F)(F)F` (centres unmarked) [compound 256] gave a pIC50 of 5.11.

Turning to `CCCc1ccc(Oc2cccc(N(Cc3cccc(OC(F)(F)C(F)F)c3)CC(O)C(F)(F)F)c2)cc1` (centres unmarked) [compound 266], in test [1], the pIC50 is 4.68. This pIC50 lies 0.43 log units lower than the previous one.

On to `Cc1ccc(Oc2cccc(N(Cc3cccc(OC(F)(F)C(F)F)c3)CC(O)C(F)(F)F)c2)cn1` (centres unmarked) [compound 282], for which the pIC50 was 6.08 in test [2] and 4.92 in test [1].

Turning to `OC(CN(Cc1cccc(OC(F)(F)C(F)F)c1)c1cccc(N2CCC(Cc3ccccc3)CC2)c1)C(F)(F)F` (centres unmarked) [compound 316], the negative logarithm of the IC50 (pIC50) in test [2] is 5.51; in test [1] it was below 4.00.

`OC(CN(Cc1cccc(OC(F)(F)C(F)F)c1)c1cccc(N2CCC3(CC2)OCCO3)c1)C(F)(F)F` (centres unmarked) [compound 317]: the negative logarithm of the IC50 (pIC50) is 5.47 in test [2] and below 4.00 in test [1].

As to `OC(CN(Cc1ccc(Cl)s1)c1cccc(OC(F)(F)F)c1)C(F)(F)F` (centres unmarked) [compound 346], the pIC50 in test [2] was 5.11; in test [1] it was below 4.00.

Consider `OC(CN(Cc1cccc(OC(F)(F)C(F)F)c1)c1cccc(OCc2ccccc2)c1)C(F)(F)F` (centres unmarked) [compound 373], for which the results for the pIC50 in test [2] and in test [1] were 6.66 and 4.92, respectively.

As to `Cc1ccc(Oc2cccc(N(Cc3cccc(SC(F)(F)F)c3)CC(O)C(F)(F)F)c2)cc1` (centres unmarked) [compound 637], the pIC50 in test [2] is 6.33; in test [1] it was 5.10.

Regarding `OC(CN(Cc1cccc(OC(F)(F)C(F)F)c1)c1cccc(Oc2ccc(F)c(F)c2)c1)C(F)(F)F` (centres unmarked) [compound 638], the pIC50 was 6.59 in test [2] and 4.96 in test [1].

`OC(CN(Cc1cccc(OC(F)(F)C(F)F)c1)c1cccc(Oc2ccc(F)cc2F)c1)C(F)(F)F` (centres unmarked) [compound 639]: the pIC50 is 6.68 in test [2] and 5.30 in test [1].

In the case of `OC(CN(Cc1cccc(SC(F)(F)F)c1)c1cc(Oc2ccc(F)cc2)cc(C(F)(F)F)c1)C(F)(F)F` (centres unmarked) [compound 642], the pIC50 in test [2] is 5.96; in test [1], 4.30.

On to `CC(C)Oc1cccc(CN(CC(O)C(F)(F)F)c2cccc(Oc3ccc(F)cc3)c2)c1` (centres unmarked) [compound 647], for which the values for the pIC50 in test [2] and in test [1] were 6.28 and 4.89, respectively.

For the compound `CCCCOc1cccc(CN(CC(O)C(F)(F)F)c2cccc(Oc3ccc(F)cc3)c2)c1` (centres unmarked) [compound 649], the pIC50 is 5.31 in test [2] and below 4.00 in test [1].

As for `CCC(C)Oc1cccc(CN(CC(O)C(F)(F)F)c2cccc(Oc3ccc(F)cc3)c2)c1` (centres unmarked) [compound 650], the pIC50 is 6.39 in test [2] and 4.52 in test [1].

For `OC(CN(Cc1cccc(OCC2CC2)c1)c1cccc(Oc2ccc(F)cc2)c1)C(F)(F)F` (centres unmarked) [compound 651], the pIC50 in test [2] is 6.00.

For `CC(C)COc1cccc(CN(CC(O)C(F)(F)F)c2cccc(Oc3ccc(F)cc3)c2)c1` (centres unmarked) [compound 652], the pIC50 in test [2] is 5.82.

Turning to `OC(CN(Cc1cccc(OC2CCCC2)c1)c1cccc(Oc2ccc(F)cc2)c1)C(F)(F)F` (centres unmarked) [compound 653], the pIC50 in test [2] is 6.04; in test [1] it was 4.42.

As to `N#Cc1ccc(Oc2cccc(N(Cc3cccc(OC(F)(F)C(F)F)c3)CC(O)C(F)(F)F)c2)cc1` (centres unmarked) [compound 657], the pIC50 in test [2] was 6.00; in test [1], 4.62.

Turning to `OC(CN(Cc1cccc(OC(F)(F)C(F)F)c1)c1cccc(Oc2ccc(OC(F)(F)F)cc2)c1)C(F)(F)F` (centres unmarked) [compound 658], the pIC50 in test [2] is 6.36; in test [1], 4.52.

For `OC(CN(Cc1ccccc1C(F)(F)F)c1cccc(F)c1)C(F)(F)F` (centres unmarked) [compound 670], the pIC50 in test [2] is below 4.00.

`Cc1ccccc1CN(CC(O)C(F)(F)F)c1cccc(F)c1` (centres unmarked) [compound 671] gave a pIC50 in test [2] below 4.00.

In test [2], `Cc1ccc(CN(CC(O)C(F)(F)F)c2ccc(C(F)(F)F)cc2)cc1` (centres unmarked) [compound 672] gave a pIC50 of 4.00.

In test [2], `OC(CN(Cc1cccc(Oc2cccc(C(F)(F)F)c2)c1)c1cccc(F)c1)C(F)(F)F` (centres unmarked) [compound 674] gave a pIC50 below 4.00.

For `OC(CN(Cc1ccccc1F)Cc1ccccc1C(F)(F)F)C(F)(F)F` (centres unmarked) [compound 696], the pIC50 in test [2] is 4.00.

Consider `OC(CF)CN(Cc1cccc(OC(F)(F)F)c1)Cc1cccc(OC(F)(F)F)c1` (centres unmarked) [compound 697], for which, in test [2], the pIC50 was 4.26.

`COc1cc2c(cc1N(Cc1cccc(OC(F)(F)F)c1)CC(O)C(F)(F)F)oc1ccccc12` (centres unmarked) [compound 698] showed a negative-log IC50 (pIC50) in test [2] of 4.00. Against the preceding compound, the pIC50 is 0.26 log units lower.

`OC(COC(F)(F)C(F)F)CN(Cc1cccc(OC(F)(F)C(F)F)c1)c1cccc(Oc2ccc(F)cc2)c1` (centres unmarked) [compound 701]: the pIC50 in test [2] was 5.35.

Regarding `OC(COC(F)(F)C(F)F)CN(Cc1cccc(OC(F)(F)C(F)F)c1)c1cccc(Oc2ccc(C(F)(F)F)cc2)c1` (centres unmarked) [compound 702], the pIC50 in test [2] is 4.46.

In general, pIC50 refers to −log10 of the IC50, conventionally taken in molar units.
